Legend:
[1] = biological target: T1, SMARCA4 (Homo sapiens, UniProt P51532); test: SMARCA4 HiBiT degradation assay in HeLa cells; format: cell-based; details: 18 hours; for Dmax: HeLa
T1 construct: SMARCA4-HiBiT knock-in Hela monoclonal cell (CS3023226) were purchased from Promega; host or cells: HeLa (CRISPR HiBiT knock-in monoclonal line, heterozygous)
In short: (§1)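 Degradation measured as HiBiT luminescence (Nano-Glo lytic reagent) after 18 h compound exposure at 37° C. Cells were HeLa clones carrying heterozygous HiBiT tags on SMARCA2 or SMARCA4, 2500 per well; compounds at 3-fold serial dilution from 10 μM.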

[2] = biological target: T2, SMARCA2 (Homo sapiens, UniProt P51531); test: SMARCA2 HiBiT degradation assay in HeLa cells; format: cell-based; details: 18 hours; for DC50: read-out: SMARCA2 IC50; for Dmax: HeLa
T2 construct: SMARCA2-HiBiT knock-in Hela monoclonal cell (CS302366); host or cells: HeLa (CRISPR HiBiT knock-in monoclonal line, heterozygous)
T2 sequence (P51531 whole entry): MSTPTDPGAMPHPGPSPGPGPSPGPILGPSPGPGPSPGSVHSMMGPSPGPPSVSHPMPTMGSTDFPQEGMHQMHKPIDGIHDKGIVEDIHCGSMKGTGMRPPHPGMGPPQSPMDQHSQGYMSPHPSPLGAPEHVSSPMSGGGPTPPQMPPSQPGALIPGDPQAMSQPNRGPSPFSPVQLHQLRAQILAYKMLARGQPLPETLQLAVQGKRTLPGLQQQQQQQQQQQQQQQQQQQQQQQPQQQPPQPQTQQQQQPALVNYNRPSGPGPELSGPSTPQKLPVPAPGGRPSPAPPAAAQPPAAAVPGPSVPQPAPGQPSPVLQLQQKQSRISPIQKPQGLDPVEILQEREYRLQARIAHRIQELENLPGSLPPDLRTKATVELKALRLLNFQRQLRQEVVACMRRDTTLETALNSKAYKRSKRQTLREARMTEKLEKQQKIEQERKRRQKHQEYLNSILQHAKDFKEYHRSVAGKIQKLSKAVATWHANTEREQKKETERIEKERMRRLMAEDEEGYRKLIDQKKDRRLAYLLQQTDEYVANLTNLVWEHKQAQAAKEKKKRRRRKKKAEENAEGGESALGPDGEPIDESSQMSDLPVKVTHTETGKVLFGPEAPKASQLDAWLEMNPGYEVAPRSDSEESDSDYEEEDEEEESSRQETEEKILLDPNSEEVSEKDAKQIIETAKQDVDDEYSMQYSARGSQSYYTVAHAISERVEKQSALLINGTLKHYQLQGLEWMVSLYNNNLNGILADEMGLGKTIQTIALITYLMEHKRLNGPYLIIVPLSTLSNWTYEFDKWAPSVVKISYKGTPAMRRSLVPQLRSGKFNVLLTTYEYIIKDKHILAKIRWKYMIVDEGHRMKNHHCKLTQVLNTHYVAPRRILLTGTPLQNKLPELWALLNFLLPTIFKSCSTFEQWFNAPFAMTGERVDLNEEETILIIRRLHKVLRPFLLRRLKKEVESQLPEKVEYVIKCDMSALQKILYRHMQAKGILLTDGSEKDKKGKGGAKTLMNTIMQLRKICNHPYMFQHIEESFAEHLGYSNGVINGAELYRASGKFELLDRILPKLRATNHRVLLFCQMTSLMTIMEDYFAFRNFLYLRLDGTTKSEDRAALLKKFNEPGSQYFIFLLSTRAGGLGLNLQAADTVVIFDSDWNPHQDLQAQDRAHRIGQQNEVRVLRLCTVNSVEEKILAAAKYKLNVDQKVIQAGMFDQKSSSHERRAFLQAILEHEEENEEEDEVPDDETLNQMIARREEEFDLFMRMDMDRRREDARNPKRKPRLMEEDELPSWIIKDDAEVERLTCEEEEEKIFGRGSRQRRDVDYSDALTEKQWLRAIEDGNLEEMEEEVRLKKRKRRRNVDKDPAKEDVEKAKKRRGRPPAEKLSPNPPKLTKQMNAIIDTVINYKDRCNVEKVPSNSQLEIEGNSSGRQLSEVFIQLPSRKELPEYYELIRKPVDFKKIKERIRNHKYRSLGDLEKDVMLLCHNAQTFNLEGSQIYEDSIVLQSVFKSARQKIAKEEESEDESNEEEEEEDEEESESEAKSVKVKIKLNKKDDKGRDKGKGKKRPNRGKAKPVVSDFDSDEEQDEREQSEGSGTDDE
In short: as §1

T1 sequence (P51532 whole entry): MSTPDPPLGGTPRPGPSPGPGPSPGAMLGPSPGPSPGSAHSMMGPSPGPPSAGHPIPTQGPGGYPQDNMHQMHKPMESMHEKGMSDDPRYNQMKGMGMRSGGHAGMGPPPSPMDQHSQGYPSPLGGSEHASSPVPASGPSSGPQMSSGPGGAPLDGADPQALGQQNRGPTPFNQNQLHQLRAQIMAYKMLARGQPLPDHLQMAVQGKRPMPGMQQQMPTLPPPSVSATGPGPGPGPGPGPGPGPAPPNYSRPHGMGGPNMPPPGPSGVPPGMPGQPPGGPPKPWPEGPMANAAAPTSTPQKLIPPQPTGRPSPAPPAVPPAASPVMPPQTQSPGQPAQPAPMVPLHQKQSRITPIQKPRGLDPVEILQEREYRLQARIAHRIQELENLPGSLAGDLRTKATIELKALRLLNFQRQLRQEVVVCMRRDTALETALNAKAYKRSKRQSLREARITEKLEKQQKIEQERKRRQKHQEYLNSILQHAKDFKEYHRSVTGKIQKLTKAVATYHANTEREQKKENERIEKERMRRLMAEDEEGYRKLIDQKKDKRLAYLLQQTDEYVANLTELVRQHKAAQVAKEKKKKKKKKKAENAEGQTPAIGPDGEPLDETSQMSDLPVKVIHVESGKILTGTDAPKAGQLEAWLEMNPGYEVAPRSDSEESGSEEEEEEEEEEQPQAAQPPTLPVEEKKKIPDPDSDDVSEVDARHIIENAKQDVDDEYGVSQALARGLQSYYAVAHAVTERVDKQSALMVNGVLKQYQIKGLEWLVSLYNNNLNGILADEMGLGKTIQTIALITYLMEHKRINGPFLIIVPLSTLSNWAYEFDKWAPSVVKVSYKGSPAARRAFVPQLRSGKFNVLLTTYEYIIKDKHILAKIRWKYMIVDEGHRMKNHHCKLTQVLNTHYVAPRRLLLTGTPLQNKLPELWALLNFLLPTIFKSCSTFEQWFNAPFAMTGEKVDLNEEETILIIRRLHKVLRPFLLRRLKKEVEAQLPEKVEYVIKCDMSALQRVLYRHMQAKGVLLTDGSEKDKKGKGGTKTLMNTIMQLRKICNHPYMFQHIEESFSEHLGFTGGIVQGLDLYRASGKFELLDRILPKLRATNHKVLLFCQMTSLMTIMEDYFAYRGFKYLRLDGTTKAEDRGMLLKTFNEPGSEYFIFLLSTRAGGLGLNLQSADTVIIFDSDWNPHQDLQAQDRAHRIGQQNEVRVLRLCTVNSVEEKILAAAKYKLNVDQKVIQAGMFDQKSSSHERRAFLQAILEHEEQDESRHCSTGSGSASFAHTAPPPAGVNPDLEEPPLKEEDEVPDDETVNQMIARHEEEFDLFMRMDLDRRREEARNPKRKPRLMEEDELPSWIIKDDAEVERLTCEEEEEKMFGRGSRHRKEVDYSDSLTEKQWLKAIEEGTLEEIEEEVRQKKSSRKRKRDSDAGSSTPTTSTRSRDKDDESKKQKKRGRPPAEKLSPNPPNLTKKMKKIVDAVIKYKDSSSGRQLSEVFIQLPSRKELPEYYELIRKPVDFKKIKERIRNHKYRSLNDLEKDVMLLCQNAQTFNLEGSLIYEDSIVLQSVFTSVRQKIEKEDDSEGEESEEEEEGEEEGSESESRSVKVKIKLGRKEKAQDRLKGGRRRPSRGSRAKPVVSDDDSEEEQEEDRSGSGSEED

Compound | DC50 [1] [nM] | Dmax [1] [%] | DC50 [2] [nM] | Dmax [2] [%]
O=C1CCC(N2Cc3ccc(N4CC[C@@H](CN5CC[C@@H](CN6CCN7c8cc(-c9cc(F)cc(F)c9O)nnc8NC[C@H]7C6)C5)C4)cc3C2=O)C(=O)N1 (stereo partly drawn) [Example 52, 3-(6-((S)-3-(((R)-3-(((S)-2-(3,5-difluoro-2-hydroxyphenyl)-5,6,6a,7,9,10-hexahydro-8H-pyrazino[1′,2′:4,5]pyrazino[2,3-c]pyridazin-8-yl)methyl)pyrrolidin-1-yl)methyl)pyrrolidin-1-yl)-1-oxoisoindolin-2-yl)piperidine-2,6-dione] | < 100 | 50 to 75 | < 100 | > 75
O=C1CCC(N2Cc3cc(N4CC[C@@H](CN5CCC(CN6CCN7c8cc(-c9cc(F)cc(F)c9O)nnc8NC[C@H]7C6)CC5)C4)ccc3C2=O)C(=O)N1 (stereo partly drawn) [Example 53, 3-(5-((S)-3-((4-(((S)-2-(3,5-difluoro-2-hydroxyphenyl)-5,6,6a,7,9,10-hexahydro-8H-pyrazino[1′,2′:4,5]pyrazino[2,3-c]pyridazin-8-yl)methyl)piperidin-1-yl)methyl)pyrrolidin-1-yl)-1-oxoisoindolin-2-yl)piperidine-2,6-dione] | < 100 | 50 to 75 | < 100 | > 75
O=C1CCC(N2Cc3ccc(N4CCN(C[C@H]5CC[C@H](CN6CCN7c8cc(-c9cc(F)cc(F)c9O)nnc8NC[C@H]7C6)CC5)CC4)cc3C2=O)C(=O)N1 (stereo partly drawn) [Example 54] | < 100 | > 75 | < 100 | > 75
O=C1CCC(N2Cc3ccc(N4CCC(CN5CCC(F)(C(=O)N6CCN7c8cc(-c9cc(F)cc(F)c9O)nnc8NC[C@H]7C6)CC5)CC4)cc3C2=O)C(=O)N1 (stereo partly drawn) [Example 55, 3-(6-(4-((4-((S)-2-(3,5-difluoro-2-hydroxyphenyl)-6,6a,7,8,9,10-hexahydro-5H-pyrazino[1′,2′:4,5]pyrazino[2,3-c]pyridazine-8-carbonyl)-4-fluoropiperidin-1-yl)methyl)piperidin-1-yl)-1-oxoisoindolin-2-yl)piperidine-2,6-dione] | < 100 | < 50 | < 100 | 50 to 75
O=C1CCC(N2Cc3ccc(N4CCN(C[C@H]5CC[C@@H](CN6CCN7c8cc(-c9cc(F)cc(F)c9O)nnc8NC[C@H]7C6)CC5)CC4)cc3C2=O)C(=O)N1 (stereo partly drawn) [Example 56, 3-(6-(4-(((1R,4s)-4-(((S)-2-(3,5-difluoro-2-hydroxyphenyl)-5,6,6a,7,9,10-hexahydro-8H-pyrazino[1′,2′:4,5]pyrazino[2,3-c]pyridazin-8-yl)methyl)cyclohexyl)methyl)piperazin-1-yl)-1-oxoisoindolin-2-yl)piperidine-2,6-dione] | < 100 | > 75 | < 100 | > 75
C[C@@H]1CN(CC2CCN(c3ccc4c(c3)C(=O)N(C3CCC(=O)NC3=O)C4)CC2)[C@@H](C)CN1C(=O)N1CCN2c3cc(-c4cccc(F)c4O)nnc3NCC2(C)C1 (stereo partly drawn) [Example 57, 3-(6-(4-(((2S,5R)-4-(2-(3-fluoro-2-hydroxyphenyl)-6a-methyl-6,6a,7,8,9,10-hexahydro-5H-pyrazino[1′,2′:4,5]pyrazino[2,3-c]pyridazine-8-carbonyl)-2,5-dimethyl-piperazin-1-yl)methyl)piperidin-1-yl)-1-oxoisoindolin-2-yl)piperidine-2,6-dione] | < 100 | < 50 | < 100 | > 75
O=C1CCC(N2Cc3ccc(N4CCN(C[C@H]5CC[C@H](CN6CCN7c8cc(-c9cccc(F)c9O)nnc8NC[C@H]7C6)CC5)CC4)cc3C2=O)C(=O)N1 (stereo partly drawn) [Example 58, 3-(6-(4-(((1S,4r)-4-(((S)-2-(3-fluoro-2-hydroxyphenyl)-5,6,6a,7,9,10-hexahydro-8H-pyrazino[1′,2′:4,5]pyrazino[2,3-c]pyridazin-8-yl)methyl)cyclohexyl)methyl)piperazin-1-yl)-1-oxoisoindolin-2-yl)piperidine-2,6-dione] | < 100 | 50 to 75 | < 100 | > 75
CC1(C)CN(CC2CCN(c3ccc4c(c3)C(=O)N([C@H]3CCC(=O)NC3=O)C4)CC2)CCN1C(=O)N1CCN2c3cc(-c4cccc(F)c4O)nnc3NC[C@]2(C(F)F)C1 [Example 65, (S)-3-(6-(4-((4-((R)-6a-(difluoromethyl)-2-(3-fluoro-2-hydroxyphenyl)-6,6a,7,8,9,10-hexahydro-5H-pyrazino[1′,2′:4,5]pyrazino[2,3-c]pyridazine-8-carbonyl)-3,3-dimethylpiperazin-1-yl)methyl)piperidin-1-yl)-1-oxoisoindolin-2-yl)piperidine-2,6-dione] | < 100 | 50 to 75 | < 100 | > 75
C[C@H]1CN(CC2CCN(c3ccc4c(c3)C(=O)N([C@H]3CCC(=O)NC3=O)C4)CC2)C[C@H](C)N1C(=O)N1CCN2c3cc(-c4cccc(F)c4O)nnc3NC[C@]2(C(F)F)C1 [Example 66, (S)-3-(6-(4-(((3S,5S)-4-((R)-6a-(difluoromethyl)-2-(3-fluoro-2-hydroxyphenyl)-6,6a,7,8,9,10-hexahydro-5H-pyrazino[1′,2′:4,5]pyrazino[2,3-c]pyridazine-8-carbonyl)-3,5-dimethylpiperazin-1-yl)methyl)piperidin-1-yl)-1-oxoisoindolin-2-yl)piperidine-2,6-dione] | < 100 | > 75 | < 100 | > 75
C[C@@H]1CN(CC2CCN(c3ccc4c(c3)C(=O)N([C@H]3CCC(=O)NC3=O)C4)CC2)C[C@@H](C)N1C(=O)N1CCN2c3cc(-c4cccc(F)c4O)nnc3NC[C@]2(C(F)F)C1 [Example 67, (S)-3-(6-(4-(((3R,5R)-4-((R)-6a-(difluoromethyl)-2-(3-fluoro-2-hydroxyphenyl)-6,6a,7,8,9,10-hexahydro-5H-pyrazino[1′,2′:4,5]pyrazino[2,3-c]pyridazine-8-carbonyl)-3,5-dimethylpiperazin-1-yl)methyl)piperidin-1-yl)-1-oxoisoindolin-2-yl)piperidine-2,6-dione] | < 100 | 50 to 75 | < 100 | 50 to 75
C[C@@H]1CN(CC2CCN(c3ccc4c(c3)C(=O)N([C@H]3CCC(=O)NC3=O)C4)CC2)[C@@H](C)CN1C(=O)N1CCN2c3cc(-c4cccc(F)c4O)nnc3NC[C@]2(C(F)F)C1 [Example 68, (S)-3-(6-(4-(((2S,5R)-4-((R)-6a-(difluoromethyl)-2-(3-fluoro-2-hydroxyphenyl)-6,6a,7,8,9,10-hexahydro-5H-pyrazino[1′,2′:4,5]pyrazino[2,3-c]pyridazine-8-carbonyl)-2,5-dimethylpiperazin-1-yl)methyl)piperidin-1-yl)-1-oxoisoindolin-2-yl)piperidine-2,6-dione] | < 100 | 50 to 75 | < 100 | > 75
C[C@@H]1CN(CC2CCN(c3ccc4c(c3)C(=O)N(C3CCC(=O)NC3=O)C4)CC2)C[C@H](C)N1C(=O)N1CCN2c3cc(-c4cccc(F)c4O)nnc3NC[C@@]2(C(F)F)C1 (stereo partly drawn) [Example 69, 3-(6-(4-(((3R,5S)-4-((S)-6a-(difluoromethyl)-2-(3-fluoro-2-hydroxyphenyl)-6,6a,7,8,9,10-hexahydro-5H-pyrazino[1′,2′:4,5]pyrazino[2,3-c]pyridazine-8-carbonyl)-3,5-dimethylpiperazin-1-yl)methyl)piperidin-1-yl)-1-oxoisoindolin-2-yl)piperidine-2,6-dione] | > 1000 | < 50 | < 100 | > 75
C[C@@H]1CN(CC2CCN(c3ccc4c(c3)C(=O)N(C3CCC(=O)NC3=O)C4)CC2)C[C@H](C)N1C(=O)N1CCN2c3cc(-c4cccc(F)c4O)nnc3NC[C@]2(C(F)F)C1 (stereo partly drawn) [Example 70, 3-(6-(4-(((3R,5S)-4-((R)-6a-(difluoromethyl)-2-(3-fluoro-2-hydroxyphenyl)-6,6a,7,8,9,10-hexahydro-5H-pyrazino[1′,2′:4,5]pyrazino[2,3-c]pyridazine-8-carbonyl)-3,5-dimethylpiperazin-1-yl)methyl)piperidin-1-yl)-1-oxoisoindolin-2-yl)piperidine-2,6-dione] | < 100 | 50 to 75 | < 100 | > 75
C[C@@H]1C[C@H](CN2CCN(c3ccc4c(c3)C(=O)N([C@H]3CCC(=O)NC3=O)C4)CC2)C[C@H](C)N1C(=O)N1CCN2c3cc(-c4cccc(F)c4O)nnc3NC[C@@]2(C(F)F)C1 [Example 71, (S)-3-(6-(4-(((2R,4S,6S)-1-((S)-6a-(difluoromethyl)-2-(3-fluoro-2-hydroxyphenyl)-6,6a,7,8,9,10-hexahydro-5H-pyrazino[1′,2′:4,5]pyrazino[2,3-c]pyridazine-8-carbonyl)-2,6-dimethylpiperidin-4-yl)methyl)piperazin-1-yl)-1-oxoisoindolin-2-yl)piperidine-2,6-dione] | 100 to 1000 | < 50 | < 100 | > 75
C[C@@H]1C[C@H](CN2CCN(c3ccc4c(c3)C(=O)N([C@H]3CCC(=O)NC3=O)C4)CC2)C[C@H](C)N1C(=O)N1CCN2c3cc(-c4cccc(F)c4O)nnc3NC[C@]2(C(F)F)C1 [Example 72, (S)-3-(6-(4-(((2R,4R,6S)-1-((R)-6a-(difluoromethyl)-2-(3-fluoro-2-hydroxyphenyl)-6,6a,7,8,9,10-hexahydro-5H-pyrazino[1′,2′:4,5]pyrazino[2,3-c]pyridazine-8-carbonyl)-2,6-dimethylpiperidin-4-yl)methyl)piperazin-1-yl)-1-oxoisoindolin-2-yl)piperidine-2,6-dione] | < 100 | > 75 | < 100 | > 75
